From ChEMBL document CHEMBL1641529, “Novel 9a,11-bridged azalides: One-pot synthesis of N'-substituted 2-imino-1,3-oxazolidines condensed to an azalide aglycone” (2011) come the findings set out here.

Experiment [1] concerns Staphylococcus aureus. The experiment in a line: Antimicrobial activity against Staphylococcus aureus after 24 hrs by microdilution method. It counts as functional.
The subject of experiment [2] is Streptococcus pneumoniae. Description: Antimicrobial activity against Streptococcus pneumoniae after 24 hrs by microdilution method. Type of experiment: functional.
Experiment [3] concerns Streptococcus pyogenes. Description: Antimicrobial activity against Streptococcus pyogenes after 24 hrs by microdilution method. Type of experiment: functional. For orientation: Dilution methods test growth across graded concentrations, often in twofold steps.
Experiment [4] relates to Moraxella catarrhalis. Description: Antimicrobial activity against Moraxella catarrhalis after 24 hrs by microdilution method. Type of experiment: functional.
Experiment [5] relates to Haemophilus influenzae. The experiment in a line: Antimicrobial activity against Haemophilus influenzae after 24 hrs by microdilution method. Type of experiment: functional.
Experiment [6] relates to Saccharomyces cerevisiae. The experiment in a line: Toxicity in Saccharomyces cerevisiae after 24 hrs by microdilution method. Type of experiment: functional, organism-based.

≈ marks a conversion by molar mass, not a printed value.

For the compound `CC[C@H]1OC(=O)[C@H](C)[C@@H](O[C@@H]2C[C@@](C)(OC)[C@@H](O)[C@H](C)O2)[C@H](C)[C@@H](O[C@@H]2O[C@H](C)C[C@H](N(C)C)[C@H]2O)[C@](C)(O)C[C@@H](C)CN2/C(=N\c3cccc4ccccc34)O[C@H]([C@H]2C)[C@]1(C)O`, the MIC in experiment [1] was 8 µg/mL (≈ 9.03 µM); in experiment [2], less than 0.125 µg/mL; in experiment [3], 0.25 µg/mL (≈ 0.282 µM); in experiment [4], 4 µg/mL (≈ 4.51 µM); in experiment [5] it was 8 µg/mL (≈ 9.03 µM). Also, the Activity entry in experiment [6] was “Not toxic”.
For the compound `CC[C@H]1OC(=O)[C@H](C)[C@@H](O)[C@H](C)[C@@H](O[C@@H]2O[C@H](C)C[C@H](N(C)C)[C@H]2O)[C@](C)(O)C[C@@H](C)CN2/C(=N\c3ccc(-c4ccccc4)cc3OC)O[C@H]([C@H]2C)[C@]1(C)O`, the MIC in experiment [1] is greater than 64 µg/mL; in experiment [2] it was greater than 64 µg/mL; in experiment [3], greater than 64 µg/mL; in experiment [4], 32 µg/mL (≈ 40.8 µM); in experiment [5], greater than 64 µg/mL. Moreover, in experiment [6], the Activity entry was “Not toxic”.
With `CC[C@H]1OC(=O)[C@H](C)[C@@H](O[C@@H]2C[C@@](C)(OC)[C@@H](O)[C@H](C)O2)[C@H](C)[C@@H](O[C@@H]2O[C@H](C)C[C@H](N(C)C)[C@H]2O)[C@](C)(O)C[C@@H](C)CN2/C(=N\Cc3ccccc3)O[C@H]([C@H]2C)[C@]1(C)O`, the MIC in experiment [1] was 2 µg/mL (≈ 2.35 µM); in experiment [2], less than 0.125 µg/mL; in experiment [3] it was less than 0.125 µg/mL; in experiment [4], 2 µg/mL (≈ 2.35 µM); in experiment [5], 16 µg/mL (≈ 18.8 µM). For the same compound, the Activity result in experiment [6] is “Not toxic”.
Turning to `CC[C@H]1OC(=O)[C@H](C)[C@@H](O)[C@H](C)[C@@H](O[C@@H]2O[C@H](C)C[C@H](N(C)C)[C@H]2O)[C@](C)(O)C[C@@H](C)CN2/C(=N\c3cccc4ccccc34)O[C@H]([C@H]2C)[C@]1(C)O`, the MIC in experiment [1] is greater than 64 µg/mL; in experiment [2], greater than 64 µg/mL; in experiment [3] it was greater than 64 µg/mL; in experiment [4], 64 µg/mL (≈ 87.9 µM); in experiment [5] it was greater than 64 µg/mL. In experiment [6], the Activity result is “Not toxic”.
For `CC[C@H]1OC(=O)[C@H](C)[C@@H](O)[C@H](C)[C@@H](O[C@@H]2O[C@H](C)C[C@H](N(C)C)[C@H]2O)[C@](C)(O)C[C@@H](C)CN2/C(=N\C(C)C)O[C@H]([C@H]2C)[C@]1(C)O`, the MIC was greater than 64 µg/mL in experiment [1]; 4 µg/mL (≈ 6.21 µM) in experiment [2]; 8 µg/mL (≈ 12.4 µM) in experiment [3]; greater than 64 µg/mL in experiment [4]; greater than 64 µg/mL in experiment [5]. In addition, in experiment [6], the Activity entry was “Not toxic”.
`CC[C@H]1OC(=O)[C@H](C)[C@@]2(O)O[C@@](C)(C[C@@H](C)CN3/C(=N\C(C)C)O[C@H]([C@H]3C)[C@]1(C)O)[C@H](O[C@@H]1O[C@H](C)C[C@H](N(C)C)[C@H]1O)[C@H]2C`: the MIC was greater than 64 µg/mL in experiment [1]; 16 µg/mL (≈ 24.9 µM) in experiment [2]; 32 µg/mL (≈ 49.9 µM) in experiment [3]; 32 µg/mL (≈ 49.9 µM) in experiment [4]; greater than 64 µg/mL in experiment [5]. Besides, in experiment [6], the Activity result is “Not toxic”.
For the compound `CC[C@H]1OC(=O)[C@H](C)[C@@H](O[C@@H]2C[C@@](C)(OC)[C@@H](O)[C@H](C)O2)[C@H](C)[C@@H](O[C@@H]2O[C@H](C)C[C@H](N(C)C)[C@H]2O)[C@](C)(O)C[C@@H](C)CN2/C(=N\c3ccc(-c4ccccc4)cc3OC)O[C@H]([C@H]2C)[C@]1(C)O`, the MIC in experiment [1] is 2 µg/mL (≈ 2.12 µM); in experiment [2] it was less than 0.125 µg/mL; in experiment [3] it was less than 0.125 µg/mL; in experiment [4], 8 µg/mL (≈ 8.49 µM); in experiment [5], 8 µg/mL (≈ 8.49 µM). Moreover, the Activity result in experiment [6] was “Not toxic”.
On to `CC[C@H]1OC(=O)[C@H](C)[C@@H](O)[C@H](C)[C@@H](O[C@@H]2O[C@H](C)C[C@H](N(C)C)[C@H]2O)[C@](C)(OC)C[C@@H](C)CN2/C(=N\Cc3ccccc3)O[C@H]([C@H]2C)[C@]1(C)O`, for which the MIC in experiment [1] is greater than 64 µg/mL; in experiment [2], 32 µg/mL (≈ 45.3 µM); in experiment [3] it was 16 µg/mL (≈ 22.7 µM); in experiment [4], greater than 64 µg/mL; in experiment [5] it was greater than 64 µg/mL. For the same compound, the Activity result in experiment [6] was “Not toxic”.
As to `CC[C@H]1OC(=O)[C@H](C)C(=O)[C@H](C)[C@@H](O[C@@H]2O[C@H](C)C[C@H](N(C)C)[C@H]2O)[C@](C)(OC)C[C@@H](C)CN2/C(=N\C(C)C)O[C@H]([C@H]2C)[C@]1(C)O`, the MIC is greater than 64 µg/mL in experiment [1]; 16 µg/mL (≈ 24.4 µM) in experiment [2]; greater than 64 µg/mL in experiment [3]; 16 µg/mL (≈ 24.4 µM) in experiment [4]; greater than 64 µg/mL in experiment [5]. The Activity result in experiment [6] was “Not toxic”.
With `CC[C@H]1OC(=O)[C@H](C)[C@@H](O)[C@H](C)[C@@H](O[C@@H]2O[C@H](C)C[C@H](N(C)C)[C@H]2O)[C@](C)(O)C[C@@H](C)CN2/C(=N\Cc3ccccc3)O[C@H]([C@H]2C)[C@]1(C)O`, the MIC in experiment [1] was 64 µg/mL (≈ 92.5 µM); in experiment [2], 8 µg/mL (≈ 11.6 µM); in experiment [3] it was 8 µg/mL (≈ 11.6 µM); in experiment [4], 64 µg/mL (≈ 92.5 µM); in experiment [5], greater than 64 µg/mL. Also, the Activity result in experiment [6] was “Not toxic”.
Take `CC[C@H]1OC(=O)[C@H](C)[C@@H](O[C@@H]2C[C@@](C)(OC)[C@@H](O)[C@H](C)O2)[C@H](C)[C@@H](O[C@@H]2O[C@H](C)C[C@H](N(C)C)[C@H]2O)[C@](C)(OC)C[C@@H](C)CN2/C(=N\C(C)C)O[C@H]([C@H]2C)[C@]1(C)O`: the MIC in experiment [1] amounted to 16 µg/mL (≈ 19.6 µM); in experiment [2], 0.5 µg/mL (≈ 0.613 µM); in experiment [3], 1 µg/mL (≈ 1.23 µM); in experiment [4] it was 2 µg/mL (≈ 2.45 µM); in experiment [5] it was 64 µg/mL (≈ 78.4 µM). Also, the Activity entry in experiment [6] is “Not toxic”.
Turning to `CC[C@H]1OC(=O)[C@H](C)[C@@H](O[C@@H]2C[C@@](C)(OC)[C@@H](O)[C@H](C)O2)[C@H](C)[C@@H](O[C@@H]2O[C@H](C)C[C@H](N(C)C)[C@H]2O)[C@](C)(OC)C[C@@H](C)CN2/C(=N\Cc3ccccc3)O[C@H]([C@H]2C)[C@]1(C)O`, the MIC in experiment [1] was 2 µg/mL (≈ 2.31 µM); in experiment [2], less than 0.125 µg/mL; in experiment [3] it was less than 0.125 µg/mL; in experiment [4], 2 µg/mL (≈ 2.31 µM); in experiment [5], 16 µg/mL (≈ 18.5 µM). Also, the Activity entry in experiment [6] is “Not toxic”.
With `CC[C@H]1OC(=O)[C@H](C)[C@@]2(O)O[C@@](C)(C[C@@H](C)CN3/C(=N\Cc4ccccc4)O[C@H]([C@H]3C)[C@]1(C)O)[C@H](O[C@@H]1O[C@H](C)C[C@H](N(C)C)[C@H]1O)[C@H]2C`, the MIC in experiment [1] was greater than 64 µg/mL; in experiment [2], 32 µg/mL (≈ 46.4 µM); in experiment [3] it was 32 µg/mL (≈ 46.4 µM); in experiment [4], 32 µg/mL (≈ 46.4 µM); in experiment [5], greater than 64 µg/mL. In experiment [6], the Activity entry was “Not toxic”.
For `CC[C@H]1OC(=O)[C@H](C)[C@@H](O[C@@H]2C[C@@](C)(OC)[C@@H](O)[C@H](C)O2)[C@H](C)[C@@H](O[C@@H]2O[C@H](C)C[C@H](N(C)C)[C@H]2O)[C@](C)(OC)C[C@@H](C)CN2/C(=N\c3cccc4ccccc34)O[C@H]([C@H]2C)[C@]1(C)O`, the MIC was 16 µg/mL (≈ 17.8 µM) in experiment [1]; 0.5 µg/mL (≈ 0.555 µM) in experiment [2]; 1 µg/mL (≈ 1.11 µM) in experiment [3]; 8 µg/mL (≈ 8.89 µM) in experiment [4]; 32 µg/mL (≈ 35.5 µM) in experiment [5]. In experiment [6], the Activity result is “Not toxic”.
On to `CC[C@H]1OC(=O)[C@H](C)[C@@H](O)[C@H](C)[C@@H](O[C@@H]2O[C@H](C)C[C@H](N(C)C)[C@H]2O)[C@](C)(OC)C[C@@H](C)CN2/C(=N\c3cccc4ccccc34)O[C@H]([C@H]2C)[C@]1(C)O`, for which the MIC in experiment [1] was greater than 64 µg/mL; in experiment [2], 64 µg/mL (≈ 86.3 µM); in experiment [3], greater than 64 µg/mL; in experiment [4] it was 16 µg/mL (≈ 21.6 µM); in experiment [5], greater than 64 µg/mL. In experiment [6], the Activity entry is “Not toxic”.
As for `CC[C@H]1OC(=O)[C@H](C)C(=O)[C@H](C)[C@@H](O[C@@H]2O[C@H](C)C[C@H](N(C)C)[C@H]2O)[C@](C)(OC)C[C@@H](C)CN2/C(=N\Cc3ccccc3)O[C@H]([C@H]2C)[C@]1(C)O`, the MIC in experiment [1] was greater than 64 µg/mL; in experiment [2], 2 µg/mL (≈ 2.84 µM); in experiment [3], 8 µg/mL (≈ 11.4 µM); in experiment [4], 8 µg/mL (≈ 11.4 µM); in experiment [5], greater than 64 µg/mL. Moreover, the Activity entry in experiment [6] was “Not toxic”.
`CC[C@H]1OC(=O)[C@H](C)[C@@H](O[C@@H]2C[C@@](C)(OC)[C@@H](O)[C@H](C)O2)[C@H](C)[C@@H](O[C@@H]2O[C@H](C)C[C@H](N(C)C)[C@H]2O)[C@](C)(O)C[C@@H](C)CN2/C(=N\C(C)C)O[C@H]([C@H]2C)[C@]1(C)O`: the MIC in experiment [1] is 16 µg/mL (≈ 19.9 µM); in experiment [2], 2 µg/mL (≈ 2.49 µM); in experiment [3] it was 2 µg/mL (≈ 2.49 µM); in experiment [4], 16 µg/mL (≈ 19.9 µM); in experiment [5], greater than 64 µg/mL. In experiment [6], the Activity result was “Not toxic”.
